The results in this text go back to paper PMC5053481, “Structural Insights into the Methylation of C1402 in 16S rRNA by Methyltransferase RsmI” (PLoS ONE, 2016).

Data set [1] addresses RsmI (G12-P258) (Escherichia coli, UniProt P67087). As to the kind of experiment: X-ray crystal structure, […] Å. As to conditions: co-crystallised, AdoMet:RsmI 5:1; site between NTD and CTD. It is filed as binding.
Data set [2] concerns the target RsmI (full-length) (Escherichia coli, UniProt P67087, F144A). As to the kind of experiment: isothermal titration calorimetry, one-site model. It is filed as binding. As to conditions: read-out: Ka (10^4/M) (converted).
The target of data set [3] is RsmI (full-length) (Escherichia coli, UniProt P67087). As to the kind of experiment: isothermal titration calorimetry, one-site model. It is filed as binding. As to conditions: read-out: Ka (10^4/M) (converted). (In general: In ITC the heat of successive injections is recorded.)
Sequence of RsmI (full-length) (Escherichia coli, UniProt P67087) (P67087 whole entry): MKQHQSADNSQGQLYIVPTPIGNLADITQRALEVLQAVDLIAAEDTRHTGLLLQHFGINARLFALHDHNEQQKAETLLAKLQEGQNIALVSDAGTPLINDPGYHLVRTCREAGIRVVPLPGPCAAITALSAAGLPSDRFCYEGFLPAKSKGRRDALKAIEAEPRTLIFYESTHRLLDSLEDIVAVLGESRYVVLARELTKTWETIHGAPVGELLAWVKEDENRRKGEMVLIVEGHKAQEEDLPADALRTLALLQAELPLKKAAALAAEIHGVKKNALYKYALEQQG
Data set [4] deals with RsmI (full-length) (Escherichia coli, UniProt P67087, Y169A). The data set can be described thus: isothermal titration calorimetry, one-site model. It counts as binding. The following applies: read-out: Ka (10^4/M) (converted).
Sequence of RsmI (full-length) (Escherichia coli, UniProt P67087, Y169A) (P67087 whole entry Y169A): as the sequence (P67087 whole entry) above, with Y169A counted along it
Data set [5] deals with the molecule itself. As to the kind of experiment: SEC; gel filtration on Superdex 200 10/300 GL; purified RsmI (Gly12-Pro258) eluted at 15.0 ml, compared with protein standards. Background: Size exclusion chromatography separates by hydrodynamic size, large species first.

Sequence of RsmI (full-length) (Escherichia coli, UniProt P67087, F144A) (P67087 whole entry F144A): as the sequence (P67087 whole entry) above, with F144A counted along it

With `C[S+](CC[C@H](N)C(=O)O)C[C@H]1O[C@@H](n2cnc3c(N)ncnc32)[C@H](O)[C@@H]1O` (some centres unmarked) [AdoMet], the “X-ray crystal structure, 2.20 Å” value in data set [1] is “coordinate and structure factor of RsmI-AdoMet complex have been deposited with the RCSB PDB”. Moreover, the Kd in data set [2] is 67.6 µM; in data set [3], 23.3 µM; in data set [4] it was 24.2 µM.

B1: RsmI truncation Gly12-Pro258 (E. coli 16S rRNA 2'-O-methyltransferase RsmI) (domain or fragment, Escherichia coli, UniProt P67087 12-258, looked up)
chain: GQLYIVPTPIGNLADITQRALEVLQAVDLIAAEDTRHTGLLLQHFGINARLFALHDHNEQQKAETLLAKLQEGQNIALVSDAGTPLINDPGYHLVRTCREAGIRVVPLPGPCAAITALSAAGLPSDRFCYEGFLPAKSKGRRDALKAIEAEPRTLIFYESTHRLLDSLEDIVAVLGESRYVVLARELTKTWETIHGAPVGELLAWVKEDENRRKGEMVLIVEGHKAQEEDLPADALRTLALLQAELP
notes: RsmI, AdoMet-dependent methyltransferase for 2'-O-methylation of C1402 in 16S rRNA, Escherichia coli, residues Gly12-Pro258; It was co-crystallised with the cofactor AdoMet; The asymmetric unit holds three molecules: one non-crystallographic dimer and one half of a crystallographic dimer; also called RmsI; RsmI (G12-P258); source: expressed and purified as reported previously [15]
With B1, the “stoichiometry N” value in data set [5] is 2.

In general, stoichiometry N refers to the number of molecules, sites or subunits per partner or assembly.
